These compounds were tested against T1, NaV1.7 (Homo sapiens, UniProt Q15858) (assay: FDSS membrane potential in-vitro assay). Settings: HEK293 cells expressing NaV1.7 α, β1, β2, veratridine and scorpion venom stimulation.
T1 construct: expressed in transfected cells
Type: cell-based

T1 sequence (Q15858 whole entry): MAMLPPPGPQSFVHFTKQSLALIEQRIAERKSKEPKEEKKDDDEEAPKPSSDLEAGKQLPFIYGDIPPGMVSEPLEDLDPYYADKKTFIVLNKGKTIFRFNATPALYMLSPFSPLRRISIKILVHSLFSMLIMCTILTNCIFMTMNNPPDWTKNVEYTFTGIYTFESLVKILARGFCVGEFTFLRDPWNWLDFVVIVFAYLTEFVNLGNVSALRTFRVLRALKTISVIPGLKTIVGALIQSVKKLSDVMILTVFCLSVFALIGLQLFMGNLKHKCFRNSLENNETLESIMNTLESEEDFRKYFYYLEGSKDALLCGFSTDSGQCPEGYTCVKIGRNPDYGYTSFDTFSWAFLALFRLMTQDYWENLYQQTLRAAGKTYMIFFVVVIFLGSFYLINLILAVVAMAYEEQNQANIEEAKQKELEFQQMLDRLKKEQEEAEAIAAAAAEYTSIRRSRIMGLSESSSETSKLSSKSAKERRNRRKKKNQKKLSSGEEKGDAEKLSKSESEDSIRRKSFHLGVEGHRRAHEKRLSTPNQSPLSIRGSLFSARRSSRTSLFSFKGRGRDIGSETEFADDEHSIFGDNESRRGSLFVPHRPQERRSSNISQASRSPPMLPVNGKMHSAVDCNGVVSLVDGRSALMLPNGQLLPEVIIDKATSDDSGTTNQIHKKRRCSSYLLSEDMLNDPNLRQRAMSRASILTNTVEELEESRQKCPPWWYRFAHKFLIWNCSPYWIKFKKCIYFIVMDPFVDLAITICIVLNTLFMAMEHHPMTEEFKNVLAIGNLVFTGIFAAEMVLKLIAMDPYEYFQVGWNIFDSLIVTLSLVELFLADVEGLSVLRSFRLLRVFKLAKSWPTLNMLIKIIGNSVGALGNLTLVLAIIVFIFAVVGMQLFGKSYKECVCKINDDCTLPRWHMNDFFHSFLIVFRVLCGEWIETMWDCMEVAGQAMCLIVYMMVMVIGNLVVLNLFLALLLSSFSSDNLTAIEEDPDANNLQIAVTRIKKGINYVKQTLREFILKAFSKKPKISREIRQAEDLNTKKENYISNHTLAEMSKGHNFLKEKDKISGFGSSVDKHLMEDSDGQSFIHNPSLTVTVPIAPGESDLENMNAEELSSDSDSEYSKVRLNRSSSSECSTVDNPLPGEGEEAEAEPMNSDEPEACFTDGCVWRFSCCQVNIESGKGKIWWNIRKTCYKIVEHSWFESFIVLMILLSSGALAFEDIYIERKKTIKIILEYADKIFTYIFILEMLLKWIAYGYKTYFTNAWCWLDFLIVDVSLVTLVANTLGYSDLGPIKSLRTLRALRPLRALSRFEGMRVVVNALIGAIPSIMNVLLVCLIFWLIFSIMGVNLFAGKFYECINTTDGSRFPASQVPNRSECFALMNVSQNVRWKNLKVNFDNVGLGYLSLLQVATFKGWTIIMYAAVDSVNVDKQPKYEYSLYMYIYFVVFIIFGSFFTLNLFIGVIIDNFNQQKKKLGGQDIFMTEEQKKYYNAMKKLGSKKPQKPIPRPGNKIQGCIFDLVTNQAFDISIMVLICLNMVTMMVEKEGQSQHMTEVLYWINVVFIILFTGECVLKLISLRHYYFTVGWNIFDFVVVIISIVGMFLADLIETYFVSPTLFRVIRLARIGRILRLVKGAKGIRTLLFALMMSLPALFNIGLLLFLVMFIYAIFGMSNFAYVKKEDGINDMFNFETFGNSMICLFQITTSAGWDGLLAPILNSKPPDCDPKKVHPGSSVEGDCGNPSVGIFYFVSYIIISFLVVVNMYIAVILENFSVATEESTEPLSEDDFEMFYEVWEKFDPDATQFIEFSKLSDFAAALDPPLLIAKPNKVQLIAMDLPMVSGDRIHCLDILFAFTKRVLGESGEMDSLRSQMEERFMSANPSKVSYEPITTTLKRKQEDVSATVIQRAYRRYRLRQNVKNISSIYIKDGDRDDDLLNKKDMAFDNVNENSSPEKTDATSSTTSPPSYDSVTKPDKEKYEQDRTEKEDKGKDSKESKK
T1 sequence (Q07699 19-218 partner): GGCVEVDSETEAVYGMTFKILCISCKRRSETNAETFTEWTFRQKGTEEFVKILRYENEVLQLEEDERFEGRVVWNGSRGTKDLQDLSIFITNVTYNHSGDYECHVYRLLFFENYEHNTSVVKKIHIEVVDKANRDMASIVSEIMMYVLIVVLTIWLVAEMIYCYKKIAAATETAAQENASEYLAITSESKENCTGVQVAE
T1 sequence (O60939 30-215 partner): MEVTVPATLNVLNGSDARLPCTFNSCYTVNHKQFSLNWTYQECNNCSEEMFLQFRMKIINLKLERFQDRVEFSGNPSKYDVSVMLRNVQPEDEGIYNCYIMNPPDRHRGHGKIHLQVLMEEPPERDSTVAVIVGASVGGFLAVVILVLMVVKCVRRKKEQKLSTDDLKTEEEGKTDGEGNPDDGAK

SMILES | IC50 [nM]
O=C(O)C1CCN(CCCc2cc(Cl)ccc2Oc2cc(F)c(S(=O)(=O)Nc3cscn3)cc2Cl)CC1 [Example 14, 1-(3-(5-chloro-2-(2-chloro-5-fluoro-4-(N-(thiazol-4-yl)sulfamoyl)phenoxy)phenyl)propyl)piperidine-4-carboxylic acid] | > 1000
NC(CCNCCCc1cc(Cl)ccc1Oc1cc(F)c(S(=O)(=O)Nc2cscn2)cc1Cl)C(=O)O (stereo not shown) [Example 17, 2-amino-4-((3-(5-chloro-2-(2-chloro-5-fluoro-4-(N-(thiazol-4-yl)sulfamoyl)phenoxy)phenyl)propyl)amino)butanoic acid] | > 1000
O=C(O)C1CCCN(CCCc2cc(Cl)ccc2Oc2cc(F)c(S(=O)(=O)Nc3cscn3)cc2Cl)C1 (stereo not shown) [Example 19, 1-(3-(5-chloro-2-(2-chloro-5-fluoro-4-(N-(thiazol-4-yl)sulfamoyl)phenoxy)phenyl)propyl)piperidine-3-carboxylic acid] | > 1000
O=C(O)CNCCCc1cc(Cl)ccc1Oc1cc(F)c(S(=O)(=O)Nc2cscn2)cc1F [Example 21, 2-((3-(5-chloro-2-(2,5-difluoro-4-(N-(thiazol-4-yl)sulfamoyl)phenoxy)phenyl)propyl)amino)acetic acid] | > 1000
O=C(O)CCNCCCc1cc(Cl)ccc1Oc1cc(F)c(S(=O)(=O)Nc2cscn2)cc1F [Example 22, 3-((3-(5-chloro-2-(2,5-difluoro-4-(N-(thiazol-4-yl)sulfamoyl)phenoxy)phenyl)propyl)amino)propanoic acid] | > 1000
N#Cc1cc(S(=O)(=O)Nc2cscn2)ccc1Oc1ccc(Cl)cc1CCCNCCC(=O)O [Example 23, 3-((3-(5-chloro-2-(2-cyano-4-(N-(thiazol-4-yl)sulfamoyl)phenoxy)phenyl)propyl)amino)propanoic acid] | > 1000

Each compound was assayed on Acetic Acid Writhing Model (assay: Acetic Acid Writhing Model (visceral pain)). Settings: relative to vehicle control; 10 to 30 mg/kg intraperitoneal.
Type: in vivo
Protocol: Writhing Model The Acetic Acid Writhing Model is associated with visceral pain (abdominal pain, such as stomach pain, and pain caused by, for example, bile duct congestion and kidney stones). A writhing test assesses acute peritoneovisceral pain. After acclimation of 2-3 days, a test compound, positive control or vehicle control is administered by intraperitoneal injection (i.p.) or by oral gavage 15-30 minutes prior to administration of acetic acid. The time of administration of test compound is recorded. For mice: 0.6% Acetic acid solution in saline is injected i.p in a volume of 10 ml/kg. For rats: 4% acetic acid in saline is injected i.p in a volume of 2 ml/kg at T=0 minutes. Each animal is placed in a clear plastic cage. At T=5 minutes, the number of writhing movements is counted over a 45 minute period. Alternatively, the writhing movements are counted over a 5-minute period and repeated every 5 minutes, starting at T=5 minutes over a 45-minute period.

SMILES | reduction in pain response, writhing
O=C(O)CNC(=O)c1cc(-c2cc(Cl)ccc2Oc2cc(F)c(S(=O)(=O)Nc3ncns3)cc2Cl)ccn1 [Example 2, 2-(4-(2-(4-(N-(1,2,4-thiadiazol-5-yl)sulfamoyl)-2-chloro-5-fluorophenoxy)-5-chlorophenyl)picolinamido)acetic acid] | 48-58%

Reference: patent publication US10179781B2, “Sodium channel modulators for the treatment of pain” (CHROMOCELL CORPORATION, priority 2013, dated 2019)
